# Source: patent US10510981B2, “Organic light-emitting diode display panel, fabrication method, and electronic apparatus” (Shanghai Tianma AM-OLED Co., Ltd., priority 2017, dated 2019)
# Test: solubility of the compound adopted in the capping layer
# Format: physicochemical
# Settings: thermodynamic from solid, saturated solution, liquid chromatography against a standard curve, solvent not given
# From the text: The test methods may include: • (1) measuring the solubility of the compound adopted in the capping layer, where the test method may include: testing samples with different concentrations of the compound by Ultimate3000 liquid chromatographic instrument manufactured by company “waters”, plotting a standard curve, then testing a saturated solution, and calculating the solubility by combining the standard curve; • (2) measuring light extraction efficiency by an UVISEB ellipsometer from HORIBA (China) Trading Co., Ltd.; and • (3) measuring lifetime by a LTS-1004DC life tester with from supplier ENC.
row,solubility [µg/mL],Structure (SMILES)
1,312,CCCCc1ccc(N(c2ccc(C)cc2C)c2ccc(-c3ccc(N(c4ccc(CCCC)cc4)c4ccc(C)cc4C)c(C)c3)cc2C)cc1
2,210,CCCCc1ccc(N(c2ccc(C)c(C)c2)c2ccc(-c3ccc(N(c4ccc(CCCC)cc4)c4ccc(C)c(C)c4)c(C)c3)cc2C)cc1
3,430,Cc1cc(-c2ccc(N(c3ccc(-c4ccc(-c5ccccc5)cc4)cc3)c3ccc(-c4ccc(-c5ccccc5)cc4)cc3)c(C)c2)ccc1N(c1ccc(-c2ccc(-c3ccccc3)cc2)cc1)c1ccc(-c2ccc(-c3ccccc3)cc2)cc1 [reference compound]
4,205,Cc1ccc(N(c2ccc(C(C)C)cc2)c2ccc(-c3ccc(N(c4ccc(C(C)C)cc4)c4ccc(C)cc4C)c(C)c3)cc2C)c(C)c1
5,566,CCCCc1ccc(N(c2ccc(-c3ccc(N(c4ccc(CCCC)cc4)C4CCCCC4)c(C)c3)cc2C)C2CCCCC2)cc1 [reference compound]
6,340,CCCCc1ccc(N(c2ccc(-c3ccc(N(c4ccc(C)c(C)c4)c4ccc(CCCC)c(C)c4)cc3)cc2)c2ccc(C)c(C)c2)cc1C
7,210,CCc1ccc(-c2ccc(N(c3ccc(-c4ccc(CC)cc4)cc3)c3ccc(-c4ccc(N(c5ccc(-c6ccc(CC)cc6)cc5)c5ccc(-c6ccc(CC)cc6)cc5)c(C)c4)cc3C)cc2)cc1
8,300,C=Cc1ccc(N(c2ccc(CCCC)cc2)c2ccc(-c3ccc(N(c4ccc(CCCC)cc4)c4ccc(C=C)c(C)c4)c(C)c3)cc2C)cc1C
9,309,Cc1ccc(N(c2ccc(-c3ccc(N(c4ccc(C(C)C)cc4)c4ccc(C)cc4C)cc3)cc2)c2ccc(C(C)C)cc2)c(C)c1
10,211,Cc1cc(-c2ccc(N(c3ccc(-c4ccccc4)cc3)c3ccc(-c4ccccc4)cc3)c(C)c2)ccc1N(c1ccc(-c2ccccc2)cc1)c1ccc(-c2ccccc2)cc1
11,298,C#Cc1ccc(N(c2ccc(CCCC)cc2)c2ccc(-c3ccc(N(c4ccc(CCCC)cc4)c4ccc(C#C)c(C)c4)c(C)c3)cc2C)cc1C
